Data set [1] has as its system P. falciparum. Put plainly: Anti-Plasmodium activity: viability of P. falciparum cultures (pLDH enzyme assay). The data set is classed as cell-based. The following applies: read-out: IC50 (μM) P. falciparum. Here is the method:
P. falciparum cultures were grown in O+ blood obtained by venipuncture of volunteers. Cultures of the laboratory line ItG were maintained by the method of Trager and Jensen (Trager, W.; Jensen, J. Science 1976, 193, 673) using RPM, 1640 supplemented with 10% human serum (a kind gift obtained under ethical consent from the Chemo Day Care department of the Princess Margaret Hospital, Toronto, Canada) and 50 μM hypoxanthine (RPMI-A). The effects of the test compounds on the viability of P. falciparum cultures were determined using a Lactate Dehydrogenase (LDH) enzyme assay specific to the enzyme found in Plasmodium falciparum (pLDH) (Prudhomme, J. G.; Sherman, I. W. J Immunol Methods 1999, 229(1-2), 169; Makler, M. T.; Ries, J. M.; Williams, J. A.; Bancroft, J. E.; Piper, R. C.; Gibbins, B. L.; Hinrichs, D. J. Am J Trop Med Hyg 1993, 48(6), 739). Briefly, compounds to be tested were dissolved in DMSO afford a solution having a concentration of 10 mg/mL. Two-fold serial dilutions were then produced in 50 μL of RPMI-A in a 96 well plate and then 50 μL of parasite culture (2% hematocrit, 2% parasitemia) were added to each well and the plates were then incubated at 37° C. in 95% N2, 3% CO2, and 2% O2 for 72 hr. The contents of the wells were then re-suspended using a multi-channel pipettor and a 15 μL sample was removed from each well and was added to 100 μL of pLDH enzyme assay mixture (Prudhomme, J. G.; Sherman, I. W. J Immunol Methods 1999, 229(1-2), 169). After 1 hr the absorbance of the wells at 650 nm was determined using a ThermoMax microplate reader (Molecular Devices, Sunnyvale, Calif.). The IC50 values of individual compounds were determined using a non-linear regression analysis of the data^19 using the computer program SigmaPlot (Jandel Scientific) and are reported in Table 1. The IC50 values represent the mean±standard error calculated from four independent determinations. To verify if the poor viability of the cultures was related to inhibited merozoite invasion, samples were taken from treated wells and the presence of extracellular merozoites was confirmed by microscopy.

For data set [2], the system named is CHO cells. Briefly: Viability of CHO cells (MTT). The format is cell-based. The settings on record: Cricetulus griseus, read-out: IC50 (μM) CHO cells. The method, then: CHO cells (ATCC, Manassas, Va.) were grown in RPMI-1640 supplemented with 10% fetal calf serum (Sigma, St. Louis, Mo.), 25 mM HEPES and gentimicin (RPMI-10). Cells were seeded in 96 well plates and grown to 50% confluency in 100 μL of RPMI-10 per well prior to the addition of either DMSO alone, or a 10 mg/mL solution of a test compound of the disclosure in DMSO. Compound gradients were prepared by adding 90 μL of RPMI-10 mixed with 10 μL of compound solution to the first well in the series, mixing, transferring 100 μL to the next well, and repeating until the next-to-last well was reached. After 48 hrs, the viability of the cells was determined by discarding the media in the wells and adding 100 μL of 10 mg/mL of 3-[4,5-dimethylthiazol-2-yl]-2,5-diphenyltetrazolium bromide (MTT, Sigma, St. Louis, Mo.) in RPMI-10, incubating the plates for a further hour, and then removing the media and adding 100 μL of DMSO and reading the absorbance at 650 nm (Campling, B. G.; Pym, J.; Galbraith, P. R.; Cole, S. P. Leuk Res 1988, 12(10), 823). The IC50 values of individual compounds were determined using a non-linear regression analysis of the dose-response curve using the computer program SigmaPlot (Jandel Scientific) and are reported in Table 1.

The mark [3] stands for this setting: strain line ItG, 72 hr incubation, pLDH assay, mean of four determinations ± standard error.
[4] abbreviates: CHO cells, 48 hrs, MTT, mean of four determinations ± standard error.

SMILES strings stand for the structures. Where two headings read alike, the source gives them in different places.

`Cl.Cl.c1cn(CCCCCCCCCCCCCCn2ccnc2)cn1` gave a melting point of 142 to 143 °C. The same measure, in the same setting: as for `Cl.Cl.c1cn(CCCCCCn2ccnc2)cn1`, the figure is 220 to 221 °C. On the same count and under the same terms, as for `Cl.Cl.c1cn(CCCCCCCCn2ccnc2)cn1`, the figure is 176 to 177 °C; as for `Cl.Cl.c1cn(CCCCCCCCCCn2ccnc2)cn1`, 143 to 144 °C. Consider `c1ccc(Cn2cc[n+](Cc3ccccc3)c2)cc1` [QT68, 1,3-Dibenzylimidazolium bromide], for which the IC50 in data set [1] (setting [3]) amounted to 16 ± 1 µM; in data set [2] (setting [4]), 191 ± 3 µM. Take `Cn1cc[n+](C)c1` [QT70, 1,3-Dimethylimidazolium iodide]: the concentration for half-maximal inhibition (IC50) in data set [1] (setting [3]) is 543 ± 66 µM; in data set [2] (setting [4]), 894 ± 19 µM. On the same counts, the results for `C[n+]1ccn(CCCCCCCCn2cc[n+](C)c2)c1` [QT71, 1,8-Bis-(3-methylimidazolium-1-yl)octane diiodide] are 4.7 ± 0.9 µM and 452 ± 49 µM.

In the case of `CCCn1cc[n+](C)c1` [QT73, 3-Methyl-1-propylimidazolium bromide], the values for the IC50 in data set [1] (setting [3]) and in data set [2] (setting [4]) were 230 ± 83 µM and 998 ± 83 µM, respectively. The like results for `Clc1cccc(Cn2cc[n+](Cc3cccc(Cl)c3)c2)c1` [QT74, 1,3-Bis-(3-chlorobenzyl)imidazolium bromide] were, in that order, 3.3 ± 0.4 µM and 334.2 ± 0.4 µM. The like results for `Brc1ccc(C[n+]2ccn(Cc3ccccc3)c2)cc1` [QT75, 1-Benzyl-3-(4-bromobenzyl)imidazolium bromide] were, in that order, 2.9 ± 0.9 µM and 484.5 ± 0.9 µM. Regarding `Ic1ccc(Cn2cc[n+](Cc3ccc(I)cc3)c2)cc1` [QT78, 1,3-Bis-(4-iodobenzyl)imidazolium bromide], the IC50 in data set [1] (setting [3]) turned out to be 0.35 ± 0.06 µM; in data set [2] (setting [4]), 33 ± 1 µM. Take `COc1ccc(Cn2cc[n+](Cc3ccc(OC)cc3)c2)cc1` [QT79, 1,3-Bis-(4-methoxybenzyl)imidazolium chloride]: the concentration for half-maximal inhibition (IC50) was 5 ± 1 µM in data set [1] (72 h) and 30.6 ± 0.7 µM in data set [2] (CHO, 48 h). The like results for `Clc1ccc(Cn2cc[n+](Cc3ccc(Cl)cc3)c2)cc1` [QT80, 1,3-Bis-(4-chlorobenzyl)imidazolium chloride] were, in that order, 9 ± 2 µM and 105 ± 1 µM.

For the compound `c1ccc2cc(Cn3cc[n+](Cc4ccc5ccccc5c4)c3)ccc2c1` [QT81, 1,3-Bis-(naphthalen-2-yl-methyl)imidazolium bromide], the IC50 in data set [1] (setting [3]) was determined as 0.9 ± 0.4 µM; in data set [2] (setting [4]), 27 ± 1 µM. On the same counts, the results for `Brc1ccccc1Cn1cc[n+](Cc2ccccc2Br)c1` [QT82, 1,3-Bis-(2-bromobenzyl)imidazolium bromide] are 1.4 ± 0.6 µM and 125 ± 10 µM. Regarding `Brc1cccc(Cn2cc[n+](Cc3cccc(Br)c3)c2)c1` [QT83, 1,3-Bis-(3-bromobenzyl)imidazolium bromide], the IC50 is 1.05 ± 0.06 µM in data set [1] (setting [3]) and 132 ± 22 µM in data set [2] (setting [4]). For `O=[N+]([O-])c1ccc(Cn2cc[n+](Cc3ccc([N+](=O)[O-])cc3)c2)cc1` [QT85, 1,3-Bis-(4-nitrobenzyl)imidazolium bromide], the figures for the IC50 in data set [1] (setting [3]) and in data set [2] (setting [4]) were 9 ± 2 µM and 227 ± 7 µM, respectively.

As for `C[n+]1ccn(CCCCn2cc[n+](C)c2)c1` [QT86, 1,4-Bis-(3-methylimidazolium-1-yl)butane diiodide], the IC50 came out at 67 ± 22 µM in data set [1] (setting [3]) and 122 ± 3 µM in data set [2] (setting [4]).

For `C[n+]1ccn(CCCCCCCCCCn2cc[n+](C)c2)c1` [QT88, 1,10-Bis-(3-methylimidazolium-1-yl)decane diiodide], the IC50 in data set [1] (setting [3]) was found to be 0.082 ± 0.009 µM; in data set [2] (setting [4]) it was 57 ± 5 µM. On the same counts, the results for `C[n+]1ccn(CCCCCCCCCCCCn2cc[n+](C)c2)c1` [QT89, 1,12-Bis-(3-methylimidazolium-1-yl)dodecane diiodide] are 0.009 ± 0.001 µM and 26 ± 5 µM. The like results for `Clc1ccccc1Cn1cc[n+](Cc2ccccc2Cl)c1` [QT90, 1,3-Bis-(2-chlorobenzyl)imidazolium bromide] were, in that order, 2 ± 0.2 µM and 110 ± 23 µM. For `O=C(Cn1cc[n+](CC(=O)c2ccc(Cl)cc2)c1)c1ccc(Cl)cc1` [QT91, 1,3-Bis-[2-oxo-2-(4-chlorophenyl)ethyl]imidazolium bromide], the IC50 in data set [1] (setting [3]) turned out to be 2.6 ± 0.1 µM; in data set [2] (setting [4]) it was 53 ± 2 µM. The like results for `Fc1ccc(Cn2cc[n+](Cc3ccc(F)cc3)c2)cc1` [QT92, 1,3-Bis-(4-fluorobenzyl)imidazolium bromide] were, in that order, 17 ± 3 µM and 56 ± 4 µM. As to `Brc1ccc(Cn2cc[n+](Cc3ccc4ccccc4c3)c2)cc1` [QT95, 1-(4-Bromobenzyl)-3-(naphthalen-2-ylmethyl)imidazolium bromide], the IC50 turned out to be 0.73 ± 0.03 µM in data set [1] (setting [3]) and 27 ± 5 µM in data set [2] (setting [4]). `O=C(Cn1cc[n+](CC(=O)c2ccc(Cc3ccccc3)cc2)c1)c1ccc(Cc2ccccc2)cc1` [QT97, 1,3-Bis-[2-oxo-2-(4-benzylphenyl)ethyl]imidazolium bromide]: the IC50 stood at 0.5 ± 0.1 µM in data set [1] (setting [3]) and 4.3 ± 0.3 µM in data set [2] (setting [4]). Consider `C[n+]1ccn(CCCCCCCCCCCCCCCn2cc[n+](C)c2)c1` [QT101, 1,15-Bis-(3-methylimidazolium-1-yl)pentadecane diiodide], for which the IC50 in data set [1] (setting [3]) worked out at 0.002 ± 0.001 µM; in data set [2] (setting [4]) it was 1.2 ± 0.2 µM. On the same counts, the results for `O=[N+]([O-])c1ccc(C[n+]2ccn(-c3ccc(-c4ccc(-n5cc[n+](Cc6ccc([N+](=O)[O-])cc6)c5)cc4)cc3)c2)cc1` [QT103, 4,4′-Bis-[3-(4-nitrobenzyl)-1H-imidazolium-1-yl]biphenyl dibromide] are 0.026 ± 0.003 µM and 14 ± 2 µM. The like results for `Cn1c[n+](C)c(-c2ccccc2)c1-c1ccccc1` [QT104, 1,3-Dimethyl-4,5-diphenyl-1H-imidazolium iodide] were, in that order, 3.1 ± 0.4 µM and 385 ± 42 µM. On the same counts, the results for `c1ccc(Cn2c[n+](Cc3ccccc3)c(-c3ccccc3)c2-c2ccccc2)cc1` [QT105, 1,3-dibenzyl-4,5-diphenyl-1H-imidazolium bromide] are 1.4 ± 0.1 µM and 21 ± 2 µM. Regarding `C[n+]1ccn(CCCCCCCCCCCCCCn2cc[n+](C)c2)c1` [QT107, 1,14-Bis-(3-methylimidazolium-1-yl)tetradecane diiodide], the IC50 in data set [1] (setting [3]) is 0.0032 ± 0.0002 µM; in data set [2] (setting [4]) it was 11 ± 2 µM.

In the case of `C[n+]1cn(-c2ccc(-c3ccc(-n4c[n+](C)c5ccccc54)cc3)cc2)c2ccccc21` [QT110, 4,4′-Bis-(3-methylbenzimidazolium-1-yl)biphenyl diiodide], the IC50 in data set [1] (setting [3]) came to 0.07 ± 0.01 µM; in data set [2] (setting [4]), 98 ± 24 µM. Regarding `C[n+]1ccn(Cc2ccc(-c3ccc(Cn4cc[n+](C)c4)cc3)cc2)c1` [QT113, 4,4′-Bis-(3-methylimidazolium-1-yl-methyl)biphenyl diiodide], the results for the IC50 in data set [1] (setting [3]) and in data set [2] (setting [4]) were 0.12 ± 0.04 µM and 125 ± 13 µM, respectively. As to `C[n+]1ccn(-c2ccc(-n3cc[n+](C)c3)cc2)c1` [QT114, 1,4-Bis-(3-methylimidazolium-1-yl)benzene diiodide], the IC50 stood at 11.2 ± 0.5 µM in data set [1] (setting [3]) and 317 ± 64 µM in data set [2] (setting [4]). For `C[n+]1ccn(CCCCCCCCCCCn2cc[n+](C)c2)c1` [QT118, 1,11-Bis-(3-methylimidazolium-1-yl)undecane diiodide], the IC50 in data set [1] (setting [3]) turned out to be 0.0061 ± 0.0006 µM; in data set [2] (setting [4]), 42 ± 3 µM. Regarding `C[n+]1ccn(CCCOc2ccc(OCCCn3cc[n+](C)c3)cc2)c1` [QT123, 1,4-Bis[3-(3-methylimidazolium-1-yl)propoxy]benzene diiodide], the results for the IC50 in data set [1] (setting [3]) and in data set [2] (setting [4]) were 0.045 ± 0.004 µM and 113 ± 12 µM, respectively.

For orientation: melting point means the temperature, or range, at which the solid turns liquid. Broadly, the IC50 is the concentration needed to halve the response being measured.

These data come from patent US8632914B2, “Triazolium and imidazolium salts and uses thereof” (University Health Network, priority 2008, dated 2014).
